Test system: primary human small intestinal epithelial cells
Procedure: Continuous monolayers of primary human small intestinal epithelial cells were generated on the crosslinked collagen hydrogel scaffold. […] (FIG. 3B) Fluorescence images of cells showing the EDU staining (white/light gray) and Hoechst 33342 (dark gray). The cell culture time was 10 days for A and B. (FIG. 3C) TEER vs. time (n=3 scaffolds).
To test this hypothesis, human small intestinal epithelial cells were plated on a hydrogel scaffold prepared in this manner, and the cell growth and TEER were monitored for up to 14 days (FIG. 3C). […] At day 10, the cells were stained with EDU (3-h pulse) to assess proliferating cells and Hoecsht nuclear stain to enable assessment of cell coverage across the scaffold (FIGS. 3A and 3B).

permeability of Lucifer yellow (apical to basal diffusion): 2.4±0.7 ×10^−8 cm·s^−1
Substance: Lucifer yellow

From patent US12644087B2, “Methods to generate polymer scaffolds having a gradient of crosslinking density” (The University of North Carolina at Chapel Hill, priority 2016, dated 2026)
